# Source: paper PMC6651024, “LIR Motif-Containing Hyperdisulfide β-Ginkgotide is Cytoprotective, Adaptogenic, and Scaffold-Ready” (Molecules, 2019)
# “Also recorded” adds a separate entry of the source. Where a SMILES comes first, the peptide text is derived from it. The star is where a group is joined. Cam = NC(=O)C*
# Assays:
# [1] = test system: SH-SY5Y cells; assay: LDH release cytotoxicity assay, SH-SY5Y; assay type: cell-based, mouse; settings: 10 µM peptide, 48 h, 37 °C, LDH kit, 450 nm, triplicates
# Text: (§1) In addition, β-gB1 is non-toxic to Vero and BHK (baby hamster kidney) cell lines based on an MTT assay. […] LDH is a cytoplasmic enzyme which is rapidly released into the cell culture medium upon plasma membrane damage and is widely used as a marker for cytotoxicity. Thus, an LDH-release assay measures the level of plasma membrane damage to a cell population.
# (§2) Rat cardio-myoblast cells (H9c2) and […] neuron-like SH-SY5Y cells were purchased from ATCC and maintained in DMEM (Dulbecco’s modified eagle medium) medium supplemented with 10% fetal bovine serum (FBS), 10,000 U/mL of penicillin, and 10,000 µg/mL of streptomycin at 37 °C, 5% CO2.
# (§3) An LDH release assay was performed using the CytoSelect™ LDH cytotoxicity assay kit (CBA-241, Cell Biolabs, Inc., San Diego, CA, USA). In brief, cells were cultured in DMEM with or without 10 µM of β-gB1 and S-alkylated β-gB1 (β-gB1Alk) for 48 h at 37 °C and 5% CO2. PBS was used for the vehicle control experiment. The culture medium was transferred and mixed with the LDH assay reagent in a ratio of 9:1. The reaction mixture was incubated at 37 °C for 2 h, and colorimetric quantification was performed using a 450 nm wavelength. The assay was performed in experimental triplicates, and statistical calculations and bar graphs were done using GraphPad Prism software (Version 6.01). […]
# [2] = test system: H9c2 cells; assay: MTT-based cell proliferation assay under normoxia, H9c2; parameters: species or system rat; settings: H9c2, 10 µM peptide, 48 h, triplicates
# Text: as §1, §2
# (§4) Cells were cultured in DMEM with or without β-gB1/S-alkylated β-gB1 (β-gB1Alk) for 48 h under normoxia, hypoxia, and hypoxia-reoxygenation conditions. Phosphate-buffered saline (PBS) was used as a vehicle control. After 48 h, MTT (3-(4,5-dimethylthiazol-2-yl)-2,5-diphenyltetrazolium bromide) reagent was added with a final concentration of 0.5 mg/mL, and it was incubated at 37 °C for 2 h. The culture medium was then aspirated, and purple formazan crystals were dissolved in DMSO for colorimetric quantification at 570 nm using a microplate reader with a reference wavelength of 630 nm. […]
# [3] = test system: SH-SY5Y cells; assay: MTT-based cell proliferation assay under normoxia, SH-SY5Y; parameters: species or system human; settings: 10 µM peptide, 48 h, triplicates
# Text: as §1, §2, §4
# [4] = test system: trypsin; assay: Enzymatic (proteolytic) stability against trypsin; assay type: in vitro ADME; settings: trypsin, 37 °C, five minute treatment; MALDI-TOF MS and C18 RP-HPLC
# Description: (§5) To assess the proteolytic stability of β-gB1, it was treated with trypsin or pepsin for 6 h. […] Similarly, the S-alkylated β-gB1 was degraded completely by pepsin within 30 min. […] This is in agreement with other plant CRPs that contain a compact structure, whose proteolytic stability was examined up to six hours treatment.
# (§6) The folded β-gB1 (28 µg) was added to 100 μL of a 0.1 M ammonium bicarbonate buffer (pH 7.8) containing 800 U/mL of trypsin or 4 mg/mL of pepsin and incubated at 37 °C for 6 h. At each time-point (0, 1, 2, 4, and 6 h), 20 µL of the treated sample was aliquoted and quenched by adding 5 µL of 1 M hydrochloric acid or 0.8 μL of 1 M sodium hydroxide. The reduced β-gB1 was alkylated with iodoacetamide (S-alkylated β-gB1) and used as a control in this study. The reaction mixture was analyzed by MALDI-TOF MS and C18-reversed-phase HPLC to determine its stability.
# [5] = test system: H9c2 cells; assay: LDH release cytotoxicity assay, H9c2; assay type: cell-based, rat; settings: H9c2, 10 µM peptide, 48 h, 37 °C; LDH kit, 450 nm; triplicates
# Text: as §1, §2, §3
# [6] = target: T1, pepsin (Sus scrofa, UniProt P00791); assay: Enzymatic (proteolytic) stability against pepsin; assay type: in vitro ADME; settings: 37 °C, MALDI-TOF MS and C18 RP-HPLC
# T1 construct: purchased Sigma-Aldrich
# T1 sequence (P00791 60-385): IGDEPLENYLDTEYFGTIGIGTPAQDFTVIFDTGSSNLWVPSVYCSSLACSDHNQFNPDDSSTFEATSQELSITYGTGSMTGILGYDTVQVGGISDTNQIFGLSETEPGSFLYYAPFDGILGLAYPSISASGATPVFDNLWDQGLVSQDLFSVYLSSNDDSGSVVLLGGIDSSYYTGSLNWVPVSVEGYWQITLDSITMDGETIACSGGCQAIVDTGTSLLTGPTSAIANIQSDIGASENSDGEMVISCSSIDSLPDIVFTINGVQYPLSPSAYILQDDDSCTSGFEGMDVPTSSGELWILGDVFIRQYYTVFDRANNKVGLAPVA
# Description: as §5, §6
compound,measurement,setting,value
"CC[C@H](C)[C@H](NC(=O)[C@H](CSCC(N)=O)NC(=O)CNC(=O)[C@H](Cc1ccc(O)cc1)NC(=O)[C@H](CCC(=O)O)NC(=O)[C@H](CC(=O)O)NC(=O)[C@H](CC(C)C)NC(=O)[C@H](Cc1ccc(O)cc1)NC(=O)[C@H](CSCC(N)=O)NC(=O)[C@H](CSCC(N)=O)NC(=O)[C@H](CCCNC(=N)N)NC(=O)[C@H](CCCCN)NC(=O)[C@H](CSCC(N)=O)NC(=O)CNC(=O)[C@@H](NC(=O)[C@H](CCC(=O)O)NC(=O)[C@@H](N)Cc1ccc(O)cc1)[C@@H](C)O)C(=O)N[C@@H](CCCNC(=N)N)C(=O)N[C@@H](CSCC(N)=O)C(=O)N[C@@H](CSCC(N)=O)C(=O)O [S-alkylated β-gB1, reference compound] (H-YETGC(Cam)KRC(Cam)C(Cam)YLDEYGC(Cam)IRC(Cam)C(Cam)-OH)",Cytotoxicity / cell-membrane damage by LDH release,[1],no significant cytotoxicity or cell-membrane damaging effects
same,Cell viability (growth or death) under normoxia,[2],No change in cell viability; also recorded: no significant effect on the growth or death
same,Cell viability (growth or death) under normoxia,[3],No change in cell viability; also recorded: no significant effect on the growth or death
same,Degradation by trypsin after five minute treatment,[4],completely degraded
same,Cytotoxicity / cell-membrane damage by LDH release,[5],no significant cytotoxicity or cell-membrane damaging effects
same,Time to complete degradation by pepsin,[6],≤ 30 min
